Measured values reported in US6174914A, “Method of inhibiting cytokine release from human ocular cells” (Alcon Laboratories, Inc., priority 1999, dated 2001).
Counter-ions that a name gives are not always drawn.

How the values were obtained:
[1] = cited from earlier work; for activity taught in U.S. Pat. Nos. 4,871,865 and 4,923,892: Burroughs Wellcome Patents
[2] = test system: IL-6 secretion in human conjunctival epithelial cells; assay: Inhibition of histamine-stimulated IL-6 secretion from cultured human conjunctival epithelial cells (ELISA); assay type: cell-based; settings: for potency in intact cells / inhibition of secretion compared with receptor binding: IL-6 and IL-8 secretion
Description: Methods detailing the preparation of primary epithelial cell cultures and cytokine release studies using these cells have been described. […] Briefly, cultures of human conjunctival epithelial cells were initiated from donor tissues obtained within eight hours post mortem by various eye banks. The tissues were enzymatically digested overnight. Epithelial cells were gently scraped from the tissue surface, dissociated into a single cell suspension, and cultured in keratinocyte growth medium (Clonetics®, San Diego, Calif.). Cells were used only through passage 6. Cultures were maintained in a preconfluent state to prevent differentiation.
Several compounds with histamine H1 antagonist activity were evaluated for their ability to inhibit secretion of cytokines (IL-6 and IL-8) from cultured human conjunctival epithelial cells in response to histamine stimulation. Cells were plated at 2×10^4 cells/well and cultured overnight at 5% CO2 /37° C. The following day, fresh medium containing test compound was added directly to wells and the cells were incubated for 30 minutes prior to 24-hour stimulation with histamine (30 μM). Three separate culture wells were used for each treatment group. At harvest, supernatants were collected, centrifuged at 200× g, and stored at -20° C. Samples were analyzed for IL-6 and IL-8 by ELISA (R&D Systems, Minneapolis, Minn.) as directed by the manufacturer. The sensitivities of each ELISA are as follows: IL-6 0.7 pg/ml and IL-8 3.0 pg/ml.
Data derived from the cytokine assays were calculated as mean and standard error (SEM) values which represent the variability among identically treated culture wells. The dose-dependent effect of pharmacological agents and IC50 's were determined by linear regression. Data are expressed as mean ±S.E.M. from 3-5 independent experiments.

[3] = test system: IL-8 secretion in human conjunctival epithelial cells; assay: Inhibition of histamine-stimulated IL-8 secretion from cultured human conjunctival epithelial cells (ELISA); assay type: cell-based; settings: Epithelial cell, 24 h, read-out: increase of IL-8 secretion above basal levels
Description: Methods detailing the preparation of primary epithelial cell cultures and cytokine release studies using these cells have been described. See Gamache, et al., "Secretion of proinflammatory cytokines by human conjunctival epithelial cells," Ocul Immunol Inflamm., 5:117-128 (1997). Briefly, cultures of human conjunctival epithelial cells were initiated from donor tissues obtained within eight hours post mortem by various eye banks. The tissues were enzymatically digested overnight. Epithelial cells were gently scraped from the tissue surface, dissociated into a single cell suspension, and cultured in keratinocyte growth medium (Clonetics®, San Diego, Calif.). Cells were used only through passage 6. Cultures were maintained in a preconfluent state to prevent differentiation. Cells were identified as epithelial by positive keratin staining.
Several compounds with histamine H1 antagonist activity were evaluated for their ability to inhibit secretion of cytokines (IL-6 and IL-8) from cultured human conjunctival epithelial cells in response to histamine stimulation. Cells were plated at 2×10^4 cells/well and cultured overnight at 5% CO2 /37° C. […] Samples were analyzed for IL-6 and IL-8 by ELISA (R&D Systems, Minneapolis, Minn.) as directed by the manufacturer. […]

[4] = IL-6 and IL-8 secretion versus H1 binding

## CN(C)CC/C=C1/c2ccccc2COc2ccc(CC(=O)O)cc21 [Olopatadine, Z-11-(3-Dimethylaminopropylidene)-6,11-dihydrodibenz[b,e]oxepin-2-acetic acid]
[1]; Kyowa patent, Wistar male rats
  activity taught in U.S. Pat. No. 5,116,863: anti-allergic and anti-inflammatory activity
[2]; [4]
  more potent inhibitor of cytokine secretion than predicted from binding data: approximately 10 fold

## CN(C)CCC=C1c2ccccc2COc2ccc(/C=C/C(=O)O)cc21 [11-(3-dimethylamino-propylidene)-6,11-dihydrodibenz[b,e]oxepine-2(E)-acrylic acid]
[1]
  activity taught in U.S. Pat. Nos. 4,871,865 and 4,923,892: antihistaminic and antiasthmatic activity

## CN(C)CCC=C1c2ccccc2COc2ccc(C(=O)O)cc21 [11-(3-dimethylaminopropylidene)-6,11-dihydrodibenz[b,e]oxepine-2-carboxylic acid]
[1]
  activity taught in U.S. Pat. Nos. 4,871,865 and 4,923,892: antihistaminic and antiasthmatic activity

## CCOCCn1c(N2CCCN(C)CC2)nc2ccccc21 [Emedastine, 1H-Benzimidazole,1-(2-ethoxyethyl)-2-(hexahydro-4-methyl-1H-1,4-diazepin-1-yl),(E)-2-butenedioate (1:2)]
[2]
  potency in intact cells / inhibition of secretion compared with receptor binding: consistent with its activity determined in receptor binding assays

## C[C@@H]1CN([C@H]2CC[C@](C#N)(c3ccc(F)cc3)CC2)CC[C@]1(C(=O)O)c1ccccc1 [Levocabastine, (-)-trans-1-[cis-4-Cyano-4-(p-fluorophenyl)cyclohexyl]-3-methyl-4-phenylisonipecotic acid monohydrochloride]
[2]
  potency in intact cells / inhibition of secretion compared with receptor binding: at a level consistent with its H1 -receptor binding affinity

## CN(C)CCC(c1ccccc1)c1ccccn1 (stereo not shown) [Pheniramine, N,N-Dimethyl-γ-phenyl-2-pyridine-propanamine]
[2]; [4]
  less potent inhibitor of IL-6 and IL-8 secretion than predicted from histamine H1-receptor binding affinity: 20-140 fold

## NCCc1c[nH]cn1 [histamine]
[3]
  fold induction at 30 µM: 1.8 ± 0.28
[2]; Homo sapiens, Epithelial cell, 24 h, read-out: increase of IL-6 secretion above basal levels
  fold induction at 30 µM: 1.59 ± 0.19

## c1ccc(CN(CC2=NCCN2)c2ccccc2)cc1 [Antazoline, 4,5-Dihydro-N-phenyl-N-(phenylmethyl)-1H-imidazole-2-methanamine]
[2]; [4]
  less potent inhibitor of IL-6 and IL-8 secretion than predicted from histamine H1-receptor binding affinity: 20-140 fold
